Experimental data: US9458515B2, “RNA including nucleoside compound, method for regulating amount of protein produced from the RNA, and nucleoside compound” (RIKEN, priority 2010, dated 2016)

Tests used:
[1] = Photoisomerization reaction assessed by time-dependent changes of absorption spectra; format: physicochemical; conditions: 25 μM in methanol, dark place; for photoisomerization from trans form to cis form: visible light of 420 nm; for photoisomerization from cis form to trans form: visible light of 550 nm
Method: A stock solution was prepared by dissolving the 8-phenylazoguanosine obtained in (3-1) in methanol so that the 8-phenylazoguanosine presented at a concentration of 25 μM in the stock solution. In a quartz cell measuring 1 cm per side was placed 200 μl out of the stock solution thus prepared. The quartz cell was irradiated with visible light having a wavelength of 420 nm in a dark place, so that photoisomerization of the trans-8-phenylazoguanosine was assessed by measuring time-dependent changes of absorption spectra of the 8-phenylazoguanosine. In this assessment, MAX-301 manufactured by Asahi Spectra Co., Ltd. was used as a light source, and M.C.420/10 nm manufactured by the same manufacturer was used as a filter. As shown in FIG. 4 (in the upper part), along with trans to cis photoisomerization of the trans-8-phenylazoguanosine, a peak of an absorbance at 420 nm decreased, and an absorbance at 500 to 600 nm increased.
Out of the stock solution prepared in (3-2-1), 200 μl of stock solution was isomerized to the cis form as described previously, after which the resulting product was placed in a quartz cell measuring 1 cm per side. The quartz cell was irradiated with visible light having a wavelength of 550 nm in a dark place, so that photoisomerization of cis-8-phenylazoguanosine was assessed by measuring time-dependent changes of absorption spectrum of the 8-phenylazoguanosine. […] As shown in FIG. 4 (in the lower part), along with trans photoisomerization of the cis-8-phenylazoguanosine, a peak of an absorbance at 420 nm increased, and an absorbance at 500 to 600 nm decreased.
A stock solution was prepared by dissolving the trans-8-(p-toluoylazo)guanosine obtained in (4-1) in methanol so that the trans-8-(p-toluoylazo) guanosine presented at a concentration of 25 μM in the stock solution. […] The quartz cell was irradiated with visible light having a wavelength of 420 nm in a dark place, so that photoisomerization of the trans-8-(p-toluoylazo)guanosine was assessed by measuring time-dependent change of absorption spectra of the trans-8-(p-toluoylazo)guanosine. […] As shown in FIG. 6 (in the upper part), along with cis photoisomerization of the trans-8-(p-toluoylazo)guanosine, a peak of an absorbance at 420 nm decreased, and an absorbance at 500 to 600 nm increased.
Out of the stock solution prepared in (4-2-1), 200 μl of stock solution was isomerized to the cis form as described previously, after which the resulting product was placed in a quartz cell measuring 1 cm per side. The quartz cell was irradiated with visible light having a wavelength of 550 nm in a dark place, so that photoisomerization of cis-8-(p-toluoylazo) guanosine was assessed by measuring time-dependent changes of absorption spectrum of the cis-8-(p-toluoylazo)guanosine. […]

[2] = Alternate cis-trans photoisomerization, durability against reversible photoisomerization (absorbance 420 nm); format: physicochemical; conditions: 25 μM in methanol, alternate 420 nm / 550 nm, each 20 seconds, 30 cycles
Method: A stock solution was prepared by dissolving the trans-8-phenylazoguanosine obtained in (3-1) in methanol so that the trans-8-phenylazoguanosine presented at a concentration of 25 μM in the stock solution. In a quartz cell measuring 1 cm per side was placed 200 μl out of the stock solution. The quartz cell was alternately irradiated with visible light having wavelength of 420 nm and with visible light having a wavelength of 550 nm, each for 20 seconds, in a dark place. While this process was repeated in 30 cycles, an absorbance (420 nm) was measured. From the result of the measurement, durability of the compound against reversible photoisomerization was assessed. MAX-301 manufactured by Asahi Spectra Co., Ltd. was used as a light source, and M.C.420/10 nm and M.C.550/10 nm manufactured by the same manufacturer were used as filters.

Compound: Cc1ccc(/N=N/c2nc3c(=O)[nH]c(N)nc3n2[C@@H]2O[C@H](CO)[C@H](O)C2O)cc1 (stereo partly drawn)
- photoisomerization from trans form to cis form [1]: photoisomerized nearly completely to the cis form

Compound: trans-8-phenylazoguanosine
- durability against reversible photoisomerization (decomposition, side-reaction) [2]: no decomposition and side-reaction
- trans to cis and cis to trans photoisomerizations on alternate irradiation [2]: alternately took place

Compound: Nc1nc2c(nc(/N=N/c3ccccc3)n2[C@@H]2O[C@H](CO)[C@H](O)C2O)c(=O)[nH]1 (stereo partly drawn) [trans-8-phenylazoguanosine]
- photoisomerization from trans form to cis form [1]: photoisomerized nearly completely to the cis form

Compound: Cc1ccc(/N=N\c2nc3c(=O)[nH]c(N)nc3n2[C@@H]2O[C@H](CO)[C@H](O)C2O)cc1 (stereo partly drawn)
- photoisomerization from cis form to trans form [1]: photoisomerized nearly completely to the trans form

Compound: Nc1nc2c(nc(/N=N\c3ccccc3)n2[C@@H]2O[C@H](CO)[C@H](O)C2O)c(=O)[nH]1 (stereo partly drawn) [cis-8-phenylazoguanosine]
- photoisomerization from cis form to trans form [1]: photoisomerized nearly completely to the trans form
